Measured values reported in US6358883B1, “Pesticidal and parasiticidal use of 1-aryl-1-(substituted thio, sulfinyl and sulfonyl)-2-nitroethane compounds” (American Cyanamid Company, priority 1998, dated 2002).
Where two headings read alike, the source gives them in different places.

Legend:
[1] = tested on: M. incognita (Root Knot Nematode) larvae; assay: Evaluation of test compounds against M. incognita larvae in microtiter plate wells (movement score); assay type: in vivo; settings: larvae scored for movement after 20-24 hours; note: key: A score of '9' indicates inactive worms with a straight, sticklike morphology; A score of '8' indicates inactive worms with a limp, curled or curved morphology; A score of '7' indicates dead/paralyzed worms after 72 hours
Summary of the method: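 Newly emerged M. incognita larvae in S Medium (buffered salt solution), 50-65 worms per well, exposed to test compounds in sealed microtiter wells. Movement scored after 20-24 h incubation; wells with obviously dead/paralyzed larvae scored positive. A score of "7" denotes dead/paralyzed worms after […].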

[2] = tested on: C. elegans (Bristol strain); assay: Evaluation of test compounds against C. elegans (motility, 96-well plate); assay type: in vivo; set-up: key: 9=complete kill in 4 hours; 8=complete kill in 24 hours; 7=markedly reduced motility in approximately 95% of worms in 24 hours; 0=normal motility, same as controls; settings: motility at 4 and 24 hours
Summary of the method: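 Bristol-strain C. elegans in Na buffer added to wells containing dried compound (applied in 80% acetone) and incubated at 20 °C. Motility of adults and larvae scored subjectively but semi-quantitatively under a dissecting microscope at 4 and 24 h after immersion, plates tapped before reading.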

[3] = tested on: Spodoptera eridania, 2nd instar larvae, southern armyworm (SAW); assay: Southern armyworm (SAW) leaf dip test; assay type: in vivo; set-up: key: 0 = no effect; 1 = 10-25% kill; 2 = 26-35% kill; 3 = 36-45% kill; 4 = 46-55% kill; 5 = 56-65% kill; 6 = 66-75% kill; 7 = 76-85% kill; 8 = 86-99% kill; 9 = 100% kill
Summary of the method: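 Compound is dissolved at 10,000 ppm in 35% acetone/water, then diluted with water. Lima bean leaves are dipped for 3 seconds, dried and placed with ten 2nd instar larvae on damp filter paper. Mortality, reduced feeding and molting interference are scored at 5 days.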

[4] = tested on: Diabrotica virgifera virgifera Leconte, 2nd instar western corn rootworm (WCR); assay: Western corn rootworm (WCR) soil test; assay type: in vivo; set-up: key: 0 = no effect; 1 = 10-25% kill; 2 = 26-35% kill; 3 = 36-45% kill; 4 = 46-55% kill; 5 = 56-65% kill; 6 = 66-75% kill; 7 = 76-85% kill; 8 = 86-99% kill; 9 = 100% kill
Summary of the method: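 Compound in 35% acetone/water applied to talc at 1.25 mg active ingredient per jar (about 50 kg/ha), solvent evaporated, then mixed with millet seed and moist soil. Ten 2nd-instar larvae per jar; mortality counted after 5 days, missing larvae scored dead.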

[5] = tested on: Tetranychus urticae (OP-resistant strain), 2-spotted spider mite (TSM); assay: 2-spotted spider mite (TSM) plant dip test; assay type: in vivo; set-up: key: 0 = no effect; 1 = 10-25% kill; 2 = 26-35% kill; 3 = 36-45% kill; 4 = 46-55% kill; 5 = 56-65% kill; 6 = 66-75% kill; 7 = 76-85% kill; 8 = 86-99% kill; 9 = 100% kill; settings: mortality after 2 days
Summary of the method: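 OP-resistant mites (~100 per leaf) were transferred onto Sieva lima bean primary leaves about 2 h before treatment. Infested plants were dipped for 3 s in compound from a 10,000 ppm stock in 35% acetone/water, diluted with water. Mortality was counted after 2 days.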

[6] = tested on: Aphis gossypii, cotton aphid (CA); assay: Cotton aphid (CA) cotyledon dip test; assay type: in vivo; set-up: key: 0 = no effect; 1 = 10-25% kill; 2 = 26-35% kill; 3 = 36-45% kill; 4 = 46-55% kill; 5 = 56-65% kill; 6 = 66-75% kill; 7 = 76-85% kill; 8 = 86-99% kill; 9 = 100% kill; settings: mortality after 5 days
Summary of the method: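 Cotyledon-stage cotton plants infested overnight via a heavily infested leaf, then dipped in test solution (compound in 35% acetone/water, diluted with water) and dried. Mortality counted after 5 days.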

[7] = tested on: Spodoptera eridania, eggs-southern armyworm (SAW-Eggs); assay: Southern armyworm eggs (SAW-Eggs) treated diet test; assay type: in vivo; set-up: key: 0 = no effect; 1 = 10-25% kill; 2 = 26-35% kill; 3 = 36-45% kill; 4 = 46-55% kill; 5 = 56-65% kill; 6 = 66-75% kill; 7 = 76-85% kill; 8 = 86-99% kill; 9 = 100% kill; settings: mortality after 7 days
Summary of the method: (§1)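 Compounds dissolved at 10,000 ppm in 35% acetone/water, diluted with water, applied to artificial diet in wells and dried. Southern corn rootworm or southern armyworm eggs placed on treated diet under vented covers; mortality counted after 7 days.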

[8] = tested on: Diabrotica undecimpunctata howardi, eggs-southern corn rootworm (SCR-Eggs); assay: Southern corn rootworm eggs (SCR-Eggs) treated diet test; assay type: in vivo; set-up: key: 0 = no effect; 1 = 10-25% kill; 2 = 26-35% kill; 3 = 36-45% kill; 4 = 46-55% kill; 5 = 56-65% kill; 6 = 66-75% kill; 7 = 76-85% kill; 8 = 86-99% kill; 9 = 100% kill; settings: mortality after 7 days
Summary of the method: as §1

[9] = tested on: Root-knot nematode, Meloidogyne incognita J2 larvae; settings: potted tomato, scored 4 weeks following inoculation
Source text: Soil Nematicide Assay Targeting Root-knot Nematode, Meloidogyne Incognita on Potted Tomato
The test compound is solubilized in acetone and diluted with water to the required test concentration. Silty loam soil in a 3 inch pot with a 3-week-old tomato transplant is drenched with the test solution. Four thousand root-knot nematode Meloidogyne incognita J2 larvae are dispensed in a aqueous suspension onto the soil. The pots are kept in the greenhouse and 4 weeks following inoculation of the pots, plant roots are washed free of soil and scored for the degree of root galling using the root-knot galling index identified below.

Compound	M. incognita (150 ppm) score [1]	Rating Against C. elegans (150 ppm) [2]	SAW (300 ppm) rating [3]	WCR (50 ppm) rating [4]	TSM (300 ppm) rating [5]	CA (300 ppm) rating [6]	SAW Eggs (300 ppm) rating [7]	SCR Eggs (1000 ppm) rating [8]	Galling Index ([9]; Rate 10 ppm soil drench)	Galling Index ([9]; Rate 25 ppm soil drench)	Galling Index ([9]; Rate 50 ppm soil drench)
CCCCOC(=O)CSC(C[N+](=O)[O-])c1cccc(C#N)c1 (racemic) [Example 101]	9	0	0	0	0	0	0	0			
COc1cccc(C(C[N+](=O)[O-])SCc2ccccc2)c1 (centres unmarked) [Example 60]	0	0	0	0	0	0	0	0			
CCOC(=O)CSC(C[N+](=O)[O-])c1ccc(OC)cc1 (centres unmarked) [Example 48]	9	9	0	0	0	0	0	0			
COC(=O)CSC(C[N+](=O)[O-])c1ccc(OC(F)(F)F)cc1 (racemic) [Example 117]	0	8	0	0	0	0	0	0			
CCCOC(=O)CSC(C[N+](=O)[O-])c1ccc2c(c1)OCO2 (racemic) [Example 104]	8	9	0	0	0	0	0	0			
COC(=O)CSC(C[N+](=O)[O-])c1ccc2c(c1)OCO2 (centres unmarked) [Example 18]	9	9	0	0	0	9 (9 = 100% kill)	0	0			
O=[N+]([O-])CC(SCc1ccccc1)c1ccc(OC(F)(F)F)cc1 (centres unmarked) [Example 124]	0	7	0	0	0	0	9 (9 = 100% kill)	0			
O=C(O)CSC(C[N+](=O)[O-])c1ccccc1 (stereo not drawn) [Example 1, {[alpha-(nitromethyl)benzyl]thio}-acetic acid]	9	9					0	0	1 (10)	0 (0)	0 (0)
COC(=O)CSC(C[N+](=O)[O-])c1c(Cl)cccc1Cl (centres unmarked) [Example 131]	9	7	0	0	0	0	0	0			
